One assay concerns the target histamine-H1 receptors (Cavia porcellus, UniProt P31389). The assay can be described thus: Histamine-H1 receptor binding assay ([3H]-mepyramine). The settings on record: guinea pig cerebellum membranes, 0.7 nM [3H]-mepyramine. As to the method: (§1) (1) Histamine-H1 Receptor Binding Assay
The study of binding to histamine-H1 receptors was performed in guinea pig cerebellum membranes as described by Chang et al., J. Neurochem, 1979, 32, 1653-1663. Briefly, the membrane suspensions (160 μg/ml) were incubated at 30° C. with 0.7 nM [^3H]-mepyramine and different concentrations of the test compounds in a final volume of 250 μl. Binding reactions were terminated by filtration after 30 min of incubation and the bound radioactivity was determined. The non-specific binding was measured in the presence of 10 μM of promethazine. The affinity of each test compound to the receptor was determined by using at least six different concentrations run in duplicate. IC50 values were obtained by non-linear regression by use of SAS on a DEC AXP computer.

Another assay deals with T1, serotonin-5HT2 receptors (Homo sapiens, UniProt P28223).
T1 construct: performed in human frontal cerebral cortex membranes; from tissue; host or cells: human frontal cerebral cortex membranes
The assay is described as follows: Serotonin-5HT2 receptor binding assay (3H-Ketanserin). The following applies: human frontal cerebral cortex membranes, 1 nM 3H-Ketanserin; read-out: 5HT-2. As to the method: as §1
(3) Serotonin-5HT2 Receptor Binding Assay
The study of binding to serotonin-5HT2 receptors was performed in human frontal cerebral cortex membranes as described previously (Pazos et al., Eur. J. of Pharmacol, 1985, 106, 531-538). Briefly, the membrane suspensions (170 μg/ml) were incubated at 37° C. with 1 nM 3H-Ketanserin and different concentrations of the test compounds in a final volume of 250 μl. Binding reactions were terminated by filtration after 30 minutes of incubation under constant shaking and the bound radioactivity was measured. The non-specific binding was estimated in the presence of 10 μM mianserin. The affinity of each test compound to the receptor was determined by using at least six different concentrations run in duplicate. IC50 values were calculated by non-linear regression using SAS.

The subject of assay [1] is histamine-induced papule (skin vascular permeability). The assay is described as follows: Histamine-induced skin vascular permeability in rats. The class given is in vivo, rat. The following applies: male Wistar rats, oral, 4 h after administration, inhibition of papule area vs vehicle. As to the method: as §1
(2) Histamine-Induced Skin Vascular Permeability in Rats
Male Wistar rats (180-210 g) were treated orally with the test compound or vehicle. Either one, four, eight or 24 hours later the rats were lightly anaesthetised with ether and a cutaneous reaction was induced by two intradermal injections of 50 μl of histamine (100 μg/ml) onto the back, followed by an intravenous injection of 3 ml/kg of Evan's Blue (5 mg/ml), both dissolved in saline. Sixty minutes later, the rats were killed by cervical dislocation and the back skin dissected free. The diameter (in millimetres) of the papule was measured in two directions and the area was calculated. Results are given as the % of inhibition at a given dose compared with the vehicle treated group.

Sequence of histamine-H1 receptors (P31389 whole entry): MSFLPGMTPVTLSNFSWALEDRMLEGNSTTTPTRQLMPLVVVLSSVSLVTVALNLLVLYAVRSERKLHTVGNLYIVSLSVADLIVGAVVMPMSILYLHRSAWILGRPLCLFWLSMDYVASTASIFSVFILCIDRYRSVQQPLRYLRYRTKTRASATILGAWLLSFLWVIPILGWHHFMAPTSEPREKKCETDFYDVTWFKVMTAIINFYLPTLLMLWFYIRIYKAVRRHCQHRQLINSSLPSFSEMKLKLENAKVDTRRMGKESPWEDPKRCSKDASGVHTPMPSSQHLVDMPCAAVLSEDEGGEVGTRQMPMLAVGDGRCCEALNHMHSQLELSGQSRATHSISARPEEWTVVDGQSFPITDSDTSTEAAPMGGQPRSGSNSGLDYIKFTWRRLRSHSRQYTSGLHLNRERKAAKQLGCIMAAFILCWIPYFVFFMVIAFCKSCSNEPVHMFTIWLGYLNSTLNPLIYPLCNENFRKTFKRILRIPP
T1 sequence (P28223 whole entry): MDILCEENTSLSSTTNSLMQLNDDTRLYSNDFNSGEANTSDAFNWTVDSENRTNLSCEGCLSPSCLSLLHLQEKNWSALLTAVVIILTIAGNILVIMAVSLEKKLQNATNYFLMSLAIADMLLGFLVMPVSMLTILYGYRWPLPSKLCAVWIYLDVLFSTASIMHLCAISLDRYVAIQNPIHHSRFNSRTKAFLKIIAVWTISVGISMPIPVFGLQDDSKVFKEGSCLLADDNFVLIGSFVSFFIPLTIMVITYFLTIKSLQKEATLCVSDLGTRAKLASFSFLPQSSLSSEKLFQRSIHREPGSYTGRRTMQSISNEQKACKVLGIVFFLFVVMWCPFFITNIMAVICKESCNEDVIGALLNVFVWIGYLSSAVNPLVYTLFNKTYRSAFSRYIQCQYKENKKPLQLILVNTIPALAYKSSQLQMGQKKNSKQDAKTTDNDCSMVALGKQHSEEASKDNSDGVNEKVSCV

For `CCOCCn1cc(C2CCN(Cc3ccc(OC)c(C(=O)O)c3)CC2)c2ccccc21` [Example 1, 5-{4-[1-(2-ethoxyethyl)-1H-indol-3-yl]piperidin-1-ylmethyl}-2-methoxybenzoic acid], the results for the IC50 on histamine-H1 receptors and at serotonin-5HT2 receptors were 145 nM and 5350 nM, respectively. Also, in assay [1], the “papule (4h) % inh a 1 mg/Kg” value turned out to be 88%.

Consider `COCCn1cc(C2CCN(Cc3ccc(OC)c(C(=O)O)c3)CC2)c2ccccc21` [Example 2, 2-methoxy-5-{4-[1-(2-methoxyethyl)-1H-indol-3-yl]piperidin-1-ylmethyl}benzoic acid], for which the figures for the IC50 at histamine-H1 receptors and on serotonin-5HT2 receptors were 470 nM and above 10000 nM, respectively. The “papule (4h) % inh a 1 mg/Kg” value in assay [1] was found to be 96%.

Consider `CCCCn1cc(C2CCN(Cc3ccc(OC)c(C(=O)O)c3)CC2)c2ccccc21` [Example 3, 5-[4-(1-butyl-1H-indol-3-yl)-piperidin-1-ylmethyl]-2-methoxybenzoic acid], for which the results for the IC50 on histamine-H1 receptors and on serotonin-5HT2 receptors were 130 nM and 4500 nM, respectively. For the same compound, the “papule (4h) % inh a 1 mg/Kg” value in assay [1] turned out to be 100%.

`CCOCCn1cc(C2CCN(Cc3ccc(OC)c(C(=O)O)c3)CC2)c2ccc(F)cc21` [Example 4, 5-{4-[1-(2-ethoxyethyl)-6-fluoro-1H-indol-3-yl]piperidin-1-ylmethyl}-2-methoxybenzoic acid]: the values for the IC50 at histamine-H1 receptors and on serotonin-5HT2 receptors were 160 nM and 4300 nM, respectively. In addition, the “papule (4h) % inh a 1 mg/Kg” value in assay [1] was 89%.

As to `COCCn1cc(C2CCN(Cc3ccc(OC)c(C(=O)O)c3)CC2)c2ccc(F)cc21` [Example 5, 5-{4-[6-fluoro-1-(2-methoxyethyl)-1H-indol-3-yl]piperidin-1-ylmethyl}-2-methoxybenzoic acid], the IC50 at histamine-H1 receptors is 245 nM; on serotonin-5HT2 receptors it was above 10000 nM. For the same compound, the “papule (4h) % inh a 1 mg/Kg” value in assay [1] came to 96%.

Values taken from US7560471B2, “Indolylpiperidine derivatives as potent antihistaminic and antiallergic agents” (Laboratorios Almirall S.A., priority 2002, dated 2009).
